The numbers were not newly measured in patent publication US20120101165A1, “Urea Compositions With Cooling Effect” (priority 2007, published 2012), which cites them from elsewhere.

Like-named read-outs stand apart in the source and are kept apart here.

For data set [1] the following is noted: endothermic.
For data set [2] the following is noted: 20% urea solution.
Test in data set [3]: not given
This is another data set of the same source.

Regarding `NC(N)=O` [urea, diaminomethanal], the solubility in water (at 20° C.) is on record as 108 g/100 mL and the solubility in water (at 100° C.) is reported as 733 g/100 mL. The “heat of solution in water” value in data set [1] is given as “about −57.8 cal/g”. In addition, in data set [2] (after 11 months at room temperature), the pH after storage is given as 8.8. Further, the “initial pH” value in data set [2] (initial) is “about 7.4”. Also, the critical relative humidity entry is recorded as “about 81%” in data set [3] (at 20° C.) and “about 73%” in data set [3] (at 30° C.).
